Test results published in US11760722B2 (priority 2022, dated 2023).

Each compound was assayed on SARS-CoV-2 Delta USA/MD-HP05647/2021 (Lineage B.1.617.2) (assay: microbe, parasite or virus in culture). Conditions: Severe acute respiratory syndrome coronavirus 2, Vero C1008, 4 h; read-out: Vero E6 Delta CPE/EC50.
Format: cell-based

Going from `CC(C)(C)[C@H](NC(=O)NC1(CS(=O)(=O)C(C)(C)C)CCCCC1)C(=O)N1C[C@H]2[C@@H]([C@H]1C(=O)N[C@H](C#N)C[C@@H]1CCNC1=O)C2(C)C` [Compound 16] to `CC(C)(C)NC(=O)N[C@H](C(=O)N1C[C@H]2[C@@H]([C@H]1C(=O)N[C@H](C#N)C[C@@H]1CCNC1=O)C2(C)C)C(C)(C)C` [Compound 87], the EC50 falls from 2980 nM to 577 nM (5.2-fold).

`CC(C)(C)[C@H](NC(=O)C12CC(C1)C2)C(=O)N1C[C@H]2[C@@H]([C@H]1C(=O)N[C@H](C#N)C[C@@H]1CCNC1=O)C2(C)C` [Compound 20] and `CC(C)(C)[C@H](NC(=O)C12CC(F)(C1)C2)C(=O)N1C[C@H]2[C@@H]([C@H]1C(=O)N[C@H](C#N)C[C@@H]1CCNC1=O)C2(C)C` [Compound 34] are within 1.5-fold of each other in EC50: 377 nM for the first, 275 nM for the second.

First: CC(C)(C)[C@H](NC(=O)c1cnc2[nH]ccc2c1)C(=O)N1C[C@H]2[C@@H]([C@H]1C(=O)N[C@H](C#N)C[C@@H]1CCNC1=O)C2(C)C [Compound 32]
Second: CC(C)(C)[C@H](NC(=O)c1ccc2c(c1)CCC2)C(=O)N1C[C@H]2[C@@H]([C@H]1C(=O)N[C@H](C#N)C[C@@H]1CCNC1=O)C2(C)C [Compound 120]
The EC50 of the first is 13-fold higher: 101000 nM for the first, 8000 nM for the second.

`CC(C)(C)[C@H](NC(=O)CC#N)C(=O)N1C[C@H]2[C@@H]([C@H]1C(=O)N[C@H](C#N)C[C@@H]1CCNC1=O)C2(C)C` [Compound 33] and `CC(C)(C)[C@H](NC(=O)CS(C)(=O)=O)C(=O)N1C[C@H]2[C@@H]([C@H]1C(=O)N[C@H](C#N)C[C@@H]1CCNC1=O)C2(C)C` [Compound 64] are within 1.5-fold of each other in EC50: 940 nM for the first, 1330 nM for the second.

Going from `CNC(=S)N[C@H](C(=O)N1C[C@H]2[C@@H]([C@H]1C(=O)N[C@H](C#N)C[C@@H]1CCNC1=O)C2(C)C)C(C)(C)C` [Compound 35] to `CCNC(=S)N[C@H](C(=O)N1C[C@H]2[C@@H]([C@H]1C(=O)N[C@H](C#N)C[C@@H]1CCNC1=O)C2(C)C)C(C)(C)C` [Compound 72], the EC50 rises from 77.9 nM to 261 nM (3.4-fold). The first is the more potent here.

Compared with `CN(C)S(=O)(=O)N[C@H](C(=O)N1C[C@H]2[C@@H]([C@H]1C(=O)N[C@H](C#N)C[C@@H]1CCNC1=O)C2(C)C)C(C)(C)C` [Compound 47, (1R,2S,5S)—N—((S)-1-cyano-2-((S)-2-oxopyrrolidin-3-yl)ethyl)-3-((S)-2-((N,N-dimethylsulfamoyl)amino)-3,3-dimethylbutanoyl)-6,6-dimethyl-3-azabicyclo[3.1.0]hexane-2-carboxamide], `CN(C)C(=S)N[C@H](C(=O)N1C[C@H]2[C@@H]([C@H]1C(=O)N[C@H](C#N)C[C@@H]1CCNC1=O)C2(C)C)C(C)(C)C` [Compound 77] is 6.4-fold higher in EC50: 242 nM for the first, 1540 nM for the second.

Compared with `CC(C)(C)[C@H](NS(=O)(=O)N1CCOCC1)C(=O)N1C[C@H]2[C@@H]([C@H]1C(=O)N[C@H](C#N)C[C@@H]1CCNC1=O)C2(C)C` [Compound 49], `CC(C)(C)[C@H](NS(=O)(=O)c1cccs1)C(=O)N1C[C@H]2[C@@H]([C@H]1C(=O)N[C@H](C#N)C[C@@H]1CCNC1=O)C2(C)C` [Compound 100] is 43-fold lower in EC50: 1580 nM for the first, 36.8 nM for the second.

First: CC1(C)[C@@H]2[C@@H](C(=O)N[C@H](C#N)C[C@@H]3CCNC3=O)N(C(=O)[C@@H](NC(=O)C(F)(F)F)C34CC(C3)C4)C[C@@H]21 [Compound 50]
Second: CC(C)(C)[C@H](NC(=O)C1(C(F)(F)F)CC1)C(=O)N1C[C@H]2[C@@H]([C@H]1C(=O)N[C@H](C#N)C[C@@H]1CCNC1=O)C2(C)C [Compound 151]
The EC50 of the first is 2.9-fold lower: 571 nM for the first, 1630 nM for the second.

First: CC(C)(C)[C@H](NS(=O)(=O)c1ccc(F)cc1)C(=O)N1C[C@H]2[C@@H]([C@H]1C(=O)N[C@H](C#N)C[C@@H]1CCNC1=O)C2(C)C [Compound 53, (1R,2S,5S)—N—((S)-1-cyano-2-((S)-2-oxopyrrolidin-3-yl)ethyl)-3-((S)-2-((4-fluorophenyl)sulfonamido)-3,3-dimethylbutanoyl)-6,6-dimethyl-3-azabicyclo[3.1.0]hexane-2-carboxamide]
Second: Cc1ccc(S(=O)(=O)N[C@H](C(=O)N2C[C@H]3[C@@H]([C@H]2C(=O)N[C@H](C#N)C[C@@H]2CCNC2=O)C3(C)C)C(C)(C)C)cc1 [Compound 96]
The EC50 of the first is higher: 14.9 nM for the first, less than 4.5 nM for the second. The second is the more potent here.

Compared with `CC(C)(C)[C@H](NS(=O)(=O)c1ccc(Cl)s1)C(=O)N1C[C@H]2[C@@H]([C@H]1C(=O)N[C@H](C#N)C[C@@H]1CCNC1=O)C2(C)C` [Compound 54], `CC(C)(C)[C@H](NS(=O)(=O)c1ccc(F)s1)C(=O)N1C[C@H]2[C@@H]([C@H]1C(=O)N[C@H](C#N)C[C@@H]1CCNC1=O)C2(C)C` [Compound 113] is higher in EC50: less than 4.5 nM for the first, 16.6 nM for the second.

Compared with `C=C(F)C(=O)N[C@H](C(=O)N1C[C@H]2[C@@H]([C@H]1C(=O)N[C@H](C#N)C[C@@H]1CCNC1=O)C2(C)C)C(C)(C)C` [Compound 66], `CC(C)(C)[C@H](NC(=O)C(F)(Cl)C(F)(F)F)C(=O)N1C[C@H]2[C@@H]([C@H]1C(=O)N[C@H](C#N)C[C@@H]1CCNC1=O)C2(C)C` (some centres unmarked) [Compound 75] is 2.1-fold lower in EC50: 93.5 nM for the first, 45 nM for the second. The second is the more potent here.

Compared with `CC(C)(C)[C@H](NC(=S)NC1CC1)C(=O)N1C[C@H]2[C@@H]([C@H]1C(=O)N[C@H](C#N)C[C@@H]1CCNC1=O)C2(C)C` [Compound 76], `CC(C)(C)[C@H](NC(=O)C(F)(F)C(F)(F)Cl)C(=O)N1C[C@H]2[C@@H]([C@H]1C(=O)N[C@H](C#N)C[C@@H]1CCNC1=O)C2(C)C` [Compound 80] is 41-fold lower in EC50: 834 nM for the first, 20.2 nM for the second.

First: CC(C)(C)[C@H](NC(=O)Cc1ccc2c(c1)CCC2)C(=O)N1C[C@H]2[C@@H]([C@H]1C(=O)N[C@H](C#N)C[C@@H]1CCNC1=O)C2(C)C [Compound 82]
Second: CC(C)(C)[C@H](NS(=O)(=O)c1ccc2c(c1)CCO2)C(=O)N1C[C@H]2[C@@H]([C@H]1C(=O)N[C@H](C#N)C[C@@H]1CCNC1=O)C2(C)C [Compound 83]
The EC50 of the first is 2.1-fold lower: 9.52 nM for the first, 20.4 nM for the second. The first is the more potent here.

`CC(C)(C)[C@H](NS(=O)(=O)c1cccc2ccccc12)C(=O)N1C[C@H]2[C@@H]([C@H]1C(=O)N[C@H](C#N)C[C@@H]1CCNC1=O)C2(C)C` [Compound 85] and `CC(C)(C)[C@H](NS(=O)(=O)c1ccc2ccccc2c1)C(=O)N1C[C@H]2[C@@H]([C@H]1C(=O)N[C@H](C#N)C[C@@H]1CCNC1=O)C2(C)C` [Compound 102] cannot be ordered by EC50: less than 4.5 nM for the first, less than 4.5 nM for the second.

Compared with `CC(C)(C)[C@H](NS(=O)(=O)c1ccc(OC(F)(F)F)cc1)C(=O)N1C[C@H]2[C@@H]([C@H]1C(=O)N[C@H](C#N)C[C@@H]1CCNC1=O)C2(C)C` [Compound 89], `CC(C)(C)[C@H](NS(=O)(=O)c1ccc(C(F)(F)F)cc1)C(=O)N1C[C@H]2[C@@H]([C@H]1C(=O)N[C@H](C#N)C[C@@H]1CCNC1=O)C2(C)C` [Compound 90] is 18-fold lower in EC50: 61.8 nM for the first, 3.4 nM for the second.

Going from `CC(C)(C)[C@H](NS(=O)(=O)c1cccnc1)C(=O)N1C[C@H]2[C@@H]([C@H]1C(=O)N[C@H](C#N)C[C@@H]1CCNC1=O)C2(C)C` [Compound 93] to `CC(C)(C)[C@H](NS(=O)(=O)c1ccccc1)C(=O)N1C[C@H]2[C@@H]([C@H]1C(=O)N[C@H](C#N)C[C@@H]1CCNC1=O)C2(C)C` [Compound 95], the EC50 falls from 372 nM to 10.7 nM (35-fold). The second is the more potent here.

First: CC(C)(C)[C@H](NS(=O)(=O)c1ccc(F)c(F)c1)C(=O)N1C[C@H]2[C@@H]([C@H]1C(=O)N[C@H](C#N)C[C@@H]1CCNC1=O)C2(C)C [Compound 99]
Second: COc1ccc(S(=O)(=O)N[C@H](C(=O)N2C[C@H]3[C@@H]([C@H]2C(=O)N[C@H](C#N)C[C@@H]2CCNC2=O)C3(C)C)C(C)(C)C)cc1 [Compound 101]
The EC50 of the first is 72-fold higher: 22.2 nM for the first, 0.31 nM for the second. The second is the more potent here.

Going from `CC(C)[C@H]1CC[C@H](C)C[C@@H]1OCC(=O)N[C@H](C(=O)N1C[C@H]2[C@@H]([C@H]1C(=O)N[C@H](C#N)C[C@@H]1CCNC1=O)C2(C)C)C(C)(C)C` [Compound 110] to `CC(C)(C)[C@H](NC(=O)C(F)(F)C(F)(F)C(F)(F)F)C(=O)N1C[C@H]2[C@@H]([C@H]1C(=O)N[C@H](C#N)C[C@@H]1CCNC1=O)C2(C)C` [Compound 133], the EC50 falls from 2020 nM to 437 nM (4.6-fold). The second is the more potent here.

First: CC(C)(C)[C@H](NS(=O)(=O)c1cc2ccccc2s1)C(=O)N1C[C@H]2[C@@H]([C@H]1C(=O)N[C@H](C#N)C[C@@H]1CCNC1=O)C2(C)C [Compound 111]
Second: Cc1ccc(S(=O)(=O)N[C@H](C(=O)N2C[C@H]3[C@@H]([C@H]2C(=O)N[C@H](C#N)C[C@@H]2CCNC2=O)C3(C)C)C(C)(C)C)s1 [Compound 118]
The EC50 of the first is lower: less than 4.5 nM for the first, 23.5 nM for the second.

Compared with `Cc1csc(S(=O)(=O)N[C@H](C(=O)N2C[C@H]3[C@@H]([C@H]2C(=O)N[C@H](C#N)C[C@@H]2CCNC2=O)C3(C)C)C(C)(C)C)c1` [Compound 112], `Cc1cc(S(=O)(=O)N[C@H](C(=O)N2C[C@H]3[C@@H]([C@H]2C(=O)N[C@H](C#N)C[C@@H]2CCNC2=O)C3(C)C)C(C)(C)C)sc1Cl` [Compound 168] is 2.9-fold lower in EC50: 63.4 nM for the first, 21.8 nM for the second.

Going from `CC(C)(C)[C@H](NS(=O)(=O)c1sccc1Cl)C(=O)N1C[C@H]2[C@@H]([C@H]1C(=O)N[C@H](C#N)C[C@@H]1CCNC1=O)C2(C)C` [Compound 114] to `CC(C)(C)[C@H](NS(=O)(=O)c1ccns1)C(=O)N1C[C@H]2[C@@H]([C@H]1C(=O)N[C@H](C#N)C[C@@H]1CCNC1=O)C2(C)C` [Compound 122], the EC50 rises from 16.4 nM to 180 nM (11-fold).

First: CN(C)[C@@H]1C[C@@H](C(=O)N[C@H](C#N)C[C@@H]2CCNC2=O)N(C(=O)[C@@H](NC(=O)C(F)(F)F)C(C)(C)C)C1 [Compound 116]
Second: CC(C)(C)c1ccc(S(=O)(=O)N[C@H](C(=O)N2C[C@H]3[C@@H]([C@H]2C(=O)N[C@H](C#N)C[C@@H]2CCNC2=O)C3(C)C)C(C)(C)C)s1 [Compound 117]
The EC50 of the first is 12-fold higher: 4000 nM for the first, 337 nM for the second.

`CC(C)(C)[C@H](NS(=O)(=O)c1ccc(C2CC2)cc1)C(=O)N1C[C@H]2[C@@H]([C@H]1C(=O)N[C@H](C#N)C[C@@H]1CCNC1=O)C2(C)C` [Compound 121] was tested, and the EC50 was less than 4.5 nM.

Same assay, conditions: read-out: Vero E6 Delta CPE/EC50

First: CC(C)(C)[C@H](NC(=O)C12CC(C1)C2)C(=O)N1C[C@H]2[C@@H]([C@H]1C(=O)N[C@H](C#N)C[C@@H]1CCNC1=O)C2(C)C [Compound 20]
Second: C=C(F)C(=O)N[C@H](C(=O)N1C[C@H]2[C@@H]([C@H]1C(=O)N[C@H](C#N)C[C@@H]1CCNC1=O)C2(C)C)C(C)(C)C [Compound 66]
The EC50 of the first is 4-fold higher: 392 nM for the first, 97.8 nM for the second.

Going from `CNC(=S)N[C@H](C(=O)N1C[C@H]2[C@@H]([C@H]1C(=O)N[C@H](C#N)C[C@@H]1CCNC1=O)C2(C)C)C(C)(C)C` [Compound 35] to `CC(C)(C)[C@H](NC(=O)C(F)(Cl)C(F)(F)F)C(=O)N1C[C@H]2[C@@H]([C@H]1C(=O)N[C@H](C#N)C[C@@H]1CCNC1=O)C2(C)C` (some centres unmarked) [Compound 75], the EC50 falls from 148 nM to 50 nM (3-fold).

Work on `CC(C)(C)[C@H](NS(=O)(=O)c1ccc(F)cc1)C(=O)N1C[C@H]2[C@@H]([C@H]1C(=O)N[C@H](C#N)C[C@@H]1CCNC1=O)C2(C)C` [Compound 53, (1R,2S,5S)—N—((S)-1-cyano-2-((S)-2-oxopyrrolidin-3-yl)ethyl)-3-((S)-2-((4-fluorophenyl)sulfonamido)-3,3-dimethylbutanoyl)-6,6-dimethyl-3-azabicyclo[3.1.0]hexane-2-carboxamide] yielded an EC50 of 20.4 nM.
